Results on two compounds are retold here after patent US4616081A, “Cephalosporin compounds” (Asahi Kasei Kogyo Kabushiki Kaisha, priority 1982, dated 1986).

Usually Cmax stands for the maximum level reached in the sampled fluid or tissue.

One series has as its system Staph. aureus ATCC 6538P. Put plainly: MIC against Staph. aureus ATCC 6538P. It counts as cell-based. The procedure: (§1) Nextly, antibacterial activity or minimum inhibitory concentration (MIC) was measured and the results are shown in Table 1 with respect to the following representative compounds according to the present invention. [drawing 19]
(§2) With respect to Compound Nos. 14 and 15, antibacterial activity or minimum inhibitory concentration (MIC) was measured and the results are shown in Table 2. [drawing 21]

The test system of another series is Staph. aureus MS27. Put plainly: MIC against Staph. aureus MS27. It counts as cell-based. As for the experimental part: as §1, §2
The next series concerns Sarcina lutea ATCC 9341. Briefly: MIC against Sarcina lutea ATCC 9341. The class given is cell-based. The procedure:
as §1, §2

Another series relates to E. coli NIHJ-JC2. Put plainly: MIC against E. coli NIHJ-JC2. The class given is cell-based. The procedure: as §1, §2
The next series deals with E. coli W3630. Put plainly: MIC against E. coli W3630. It counts as cell-based. The procedure: as §1, §2
Another series concerns E. coli W3630 PS3. Put plainly: MIC against E. coli W3630 PS3. The class given is cell-based. The procedure:
as §1, §2

The test system of another series is E. coli W3630 RGN14. Briefly: MIC against E. coli W3630 RGN14. The class given is cell-based.
A further series has as its system E. coli W3630 RGN238. Briefly: MIC against E. coli W3630 RGN238. The class given is cell-based.
The test system of another series is E. coli 0205. Put plainly: MIC against E. coli 0205. The class given is cell-based.
In series [1] the test system is Citrobact. freundii GN346. Put plainly: MIC against Citrobact. freundii GN346. The class given is cell-based. The procedure:
as §1, §2

Series [2] has as its system Klebs. pneumoniae ATCC 10031. Briefly: MIC against Klebs. pneumoniae ATCC 10031. It counts as cell-based. The procedure: as §1, §2
In series [3] the test system is Salm. enteritidis Gaertner. Put plainly: MIC against Salm. enteritidis Gaertner. It counts as cell-based. As for the experimental part: as §1, §2
In the next series the test system is Shigella sonnei E33. Put plainly: MIC against Shigella sonnei E33. It counts as cell-based. The procedure: as §1, §2
The next series relates to Proteus morganii 0239. Put plainly: MIC against Proteus morganii 0239. The class given is cell-based. As for the experimental part: as §1, §2
A further series relates to Proteus rettgeri ACR. Put plainly: MIC against Proteus rettgeri ACR. The class given is cell-based. The procedure: as §1, §2
Series [4] has as its system Enterobact. aerogenes 0655. Briefly: MIC against Enterobact. aerogenes 0655. The class given is cell-based. As for the experimental part: as §1, §2
For series [5], the system named is Enterobact. cloacae GN336. Put plainly: MIC against Enterobact. cloacae GN336. It counts as cell-based. The procedure: as §1, §2
In the next series the test system is Serratia marcescens. Briefly: MIC against Serratia marcescens. The class given is cell-based. As for the experimental part: as §1, §2
The test system of the next series is Staph. pyogenes NY5. Put plainly: MIC against Staph. pyogenes NY5. The class given is cell-based.
The nature of series [6]: maximum blood concentration after oral administration in Wister rats (HPLC and Bioassay). The class given is in vivo. The conditions noted are these: Wister rat, fasted, 30 mg/kg, solution of pH 7 in phosphate buffer. The procedure: Further in the compounds according to the present invention, intestinal absorption is improved by the introduction of amino acids at the 3-position thereof. For example, comparison of the maximum blood concentration of the Compound Nos. 2, 3, 7, 8, 14, 15 and 23 with that of Comparative Compound (b) establishes and affirms the effects, as is shown below. In the above test, the method for measurement of blood concentration was as follows. Rate: Wister rat weighing 170 to 220 g Dose: 30 mg/kg Wister rats were fasted from the previous night but freely accessible to water. Each of drugs was administered as a solution of pH 7 in a phosphate buffer, when orally administered. The blood concentration was measured in accordance with the High Performance Liquid Chromatography (HPLC) method and the Bioassay method by using E. coli as bacteria for test.

Setting [7] is: Bacterial count inoculated 10^6 cells/ml.
[8] abbreviates: Bacterial count inoculated 10^8 cells/ml.
Where [9] appears, read: Table 3, second listing of the strain, head prints 10^6 cells/ml.

Consider `CO/N=C(\C(=O)N[C@@H]1C(=O)N2C(C(=O)O)=C(COC(C)=O)CS[C@H]12)c1csc(N)n1` [Comparative Compound (b), reference compound], for which the “Minimum Inhibitory Concentration (MIC)” value was 1.6 with Staph. aureus ATCC 6538P (setting [7]); 3.1 with Staph. aureus ATCC 6538P (setting [8]); 1.6 in the series on Staph. aureus MS27 (setting [7]); 3.1 in the series with Staph. aureus MS27 (setting [8]); not above 0.2 in the series on Sarcina lutea ATCC 9341 (setting [7]); not above 0.2 in the series with Sarcina lutea ATCC 9341 (setting [8]). Further, the “Minimum Inhibitory Concentration (MIC)” value is 6.3 in the series with E. coli NIHJ-JC2 (setting [8]); 25 in the series on E. coli NIHJ-JC2 (setting [9]); not above 0.2 in the series with E. coli W3630 (setting [7]); 25 with E. coli W3630 (setting [8]); 6.3 in the series on E. coli W3630 (setting [9]); not above 0.2 in the series with E. coli W3630 PS3 (setting [7]). In addition, the “Minimum Inhibitory Concentration (MIC)” value is 25 with E. coli W3630 PS3 (setting [8]); not above 0.2 with E. coli W3630 RGN14 (setting [7]); 100 in the series on E. coli W3630 RGN14 (setting [9]); not above 0.2 in the series on E. coli W3630 RGN238 (setting [7]); not below 100 with E. coli W3630 RGN238 (setting [9]); 0.4 in the series with E. coli 0205 (setting [7]). Also, the “Minimum Inhibitory Concentration (MIC)” value in the series on E. coli 0205 (setting [9]) is 50; in series [1] (setting [7]), 25; in series [1] (setting [8]) it was 100; in [2] (setting [7]) it was not above 0.2; in [2] (setting [8]) it was 25; in [2] (setting [9]), 1.6. The “Minimum Inhibitory Concentration (MIC)” value in [3] (setting [7]) is not above 0.2; in [3] (setting [8]) it was 6.3; with Shigella sonnei E33 (setting [7]), not above 0.2; in the series with Shigella sonnei E33 (setting [8]), 1.6; in the series with Shigella sonnei E33 (setting [9]), 3.1; with Proteus morganii 0239 (setting [7]) it was not above 0.2. Also, the “Minimum Inhibitory Concentration (MIC)” value is recorded as 50 in the series on Proteus morganii 0239 (setting [8]); not above 0.2 with Proteus rettgeri ACR (setting [7]); 100 with Proteus rettgeri ACR (setting [9]); not above 0.2 in [4] (setting [7]); 50 in series [4] (setting [8]); not above 0.2 in series [5] (setting [7]). The “Minimum Inhibitory Concentration (MIC)” value in series [5] (setting [8]) is 50; in series [5] (setting [9]) it was 50; with Serratia marcescens (setting [7]), not above 0.2; in the series with Serratia marcescens (setting [8]), 50; with Serratia marcescens (setting [9]) it was more than 100; in the series with Staph. pyogenes NY5 (setting [7]), not above 0.2. For the same compound, the “Minimum Inhibitory Concentration (MIC)” value in the series on Staph. pyogenes NY5 (setting [8]) is reported as 0.2. In series [6], this compound yielded a Cmax of 200 ng/mL.

`CC(C)(O/N=C(\C(=O)N[C@@H]1C(=O)N2C(C(=O)O)=C(CSc3nnc(CC(N)C(=O)O)s3)CS[C@H]12)c1csc(N)n1)C(=O)O` (stereo partly drawn) [Compound No. 8] showed a maximum concentration (Cmax) in series [6] of 8000 ng/mL.
